Assay results reported in patent US20110060000A1, “ACRIDINE ANALOGS IN THE TREATMENT OF GLIOMAS” (priority 2009, published 2011).

How the values were obtained:
C6 = assay: TUNEL labeling in C6; assay type: cell-based, rat; conditions: C6, 24 hours
Method: C6 were plated on glass coverslips. Cells were fixed and stained accordingly to manufacturer instructions. Propidium staining of the nuclei was replaced by Hoechst included in the mounting media. Several images were acquired with a high resolution camera on a microscope equipped with a 10× long working distance dry lens and analyzed with powerful commercial software. Results were expressed in the graph as green labeled pixel counts. The images from the top to the bottom are respectively from N.T., DMSO, Thap 20 nM, Thap 200 nM, STS100 nM. The blue images reflect nuclear staining while the images on the right represent BRDU staining.
Thereafter, cells were harvested and protein extracted. Procaspase 12 band at 65 kDa was identified. In some of the treatments, the active product at 45 kDa was also detected. […] Conversely, in C6, higher GRP78 levels and the cell environment reflect significant caspase activation. […] Caspase activation in ERSR conditions was also confirmed with a TUNEL based apoptosis detection system in C6. […] High resolution images of the experiments were acquired and image morphometric analysis was performed to determine quantitative parameters of the staining as previously described (Pascale et al., 2004, “Translocation of protein kinase C-betaII in astrocytes requires organized actin cytoskeleton and is not accompanied by synchronous RACK1 relocation.” Glia 46(2): 169-82). […]

glioma cells = assay: Gliotoxicity, cell line not stated; assay type: cell-based
Source text: Spiperone is a selective D2 dopamine receptor antagonist. This drug is used in the treatment of schizophrenia and other hallucinatory states. […] In an effort to develop Structure-Activity Relationships around the chosen compounds, a search of commercially available compounds that are either close structural analogs of these lead compounds (for example, acridine and quinoline analogs of quinacrine) or are related to these in terms of their pharmacological activity (dopamine receptor antagonists related to spiperone) was performed.

[1] = tested on: subcutaneous U87-MG gliomas; assay: Mice bearing subcutaneous U87-MG gliomas; assay type: in vivo
Source text: The estimated survival prolongment is 14 days in mice life which compares at 851 days in human life based on a life expectancy of 18 months in mice and 90 years in human. Also, since one animal was tumor-free at the end of the treatment that translates in an expected 16% cure rate.
FIG. 29a graphs % tumor weight/control as a function of days after implantation. […] Such a profile indicates effectiveness in vivo for both treatment and for prevention of relapse. FIG. 29b graphs % animal survival as a function of days after implantation. […] Such a profile indicates effectiveness in vivo for both treatment and for prevention of relapse.
Mice bearing subcutaneous gliomas were received daily oral administration of 200 mg/kg of quinacrine. […] In FIG. 29 is shown the effect of 100 mg/kg of quinacrine and 10 mg/kg 9-aminoacridine in Mice bearing subcutaneous U87-MG gliomas.

[2] = tested on: U87-MG skin xenograft tumor explants; assay: U87-MG skin xenograft tumor explants, ERSR markers; assay type: in vivo, mice; conditions: samples after 7 and 21 days
Source text: U7 represents vehicle treated sample after 7 days. U21 represents vehicle treated sample after 21 days. Q7 represents quinacridine-treated sample after 7 days. Q21 represents quinacridine-treated sample after 21 days. 9AA-7 represents 9-aminoacridine-treated sample after 7 days. 9AA-21 represents 9-aminoacridine-treated sample after 21 days.

C6 cells = conditions: tested at less than 1 μM; cited from earlier work
platelets = conditions: cited from earlier work
[3] = intrapleural, 100 mg/day in 50 ml saline for 4 days; cited from earlier work
tumor cells = conditions: in vitro and in vivo; cited from earlier work
p53 = conditions: cited from earlier work
[4] = 200 mg/kg daily oral for 14 days
[5] = full dose over about 45 days, Q oral, 9-AA I.P.
[6] = half dose (maintenance dose) up to about 60 days

## C/C=C(/C)C(=O)O[C@H]1C(C)=C2[C@H]([C@@H]1OC(=O)CCCCCCC)[C@@](C)(OC(C)=O)C[C@H](OC(=O)CCC)[C@@]1(O)[C@H]2OC(=O)[C@@]1(C)O [THAP, thapsigargin]
C6
  TUNEL labeling: clear increase of TUNEL labeling

## CCN(CC)CCCC(C)Nc1c2ccc(Cl)cc2nc2ccc(OC)cc12 (stereo not drawn) [quinacrine]
Glioma cells
  cytotoxicity in human cells versus rat cells: higher cytotoxicity in human cells than in rat cells
Glioma cells; cell line not stated
  gliotoxicity: by far the most effective gliotoxic compound
[1]; 100 mg/kg of quinacrine and 10 mg/kg 9-aminoacridine
  antiglioma action: powerful antiglioma action
[1]; 200 mg/kg daily oral
  delay in tumor growth: 14 days
  tumor growth after withdrawal of treatment versus controls: significant reduction in tumor growth than controls
[1]; [4]
  estimated survival prolongment in mice life: 14 days
  tumor in one of the treated animals: disappearance of the tumor
  tumor size in treated animals: tumors decrease in size
[1]; 200 mg/kg daily oral, at 11 days
  effect on tumor growth: already significant
[1]; 200 mg/kg daily oral, at 21 days
  inhibition of tumor growth: 6-7 folds
[1]; [5]
  animal survival rate compared to control: increased survival rate
  tumor size compared to control: decrease in tumor size
[1]; [6]
  animal survival rate compared to control: survival rate was high
  tumor size compared to control: tumor size remained relatively constant
[1]; life expectancy 18 months in mice, 90 years in human
  delay / survival prolongment translated to human life: 851 days
[1]; quinacrine 200 mg/kg daily oral, one animal tumor-free
  cure rate: 16%
[2]
  ERSR activation and GRP78 target protein in tumor explants: activaiton of ERSR and changes in GRP78 target protein
  caspase 12 activation in tumor explants: activation of caspase 12 is evident
C6 cells
  killing of C6 cells: ineffective in killing C6 cells
platelets
  alpha-granule release reaction of platelets: prevent the alpha-granule release reaction of platelets
[3]
  peak concentration: less than 10 ng/ml
Tumor cells
  toxicity to tumor versus normal cells: more toxic to tumor than to normal cells
p53
  p53 activation and p53-dependent killing of tumor cell types: capable of p53 activation and p53-dependent killing
